# Assay results: US9566312B2, “Cyclic peptides and use as medicines” (priority 2012, dated 2017)
# Starred links: 1 amine or outer side, 2 acyl side, 3 side chain; linkers in the order of their positions; H or OH if unused. Non-standard residues stand in square brackets, D forms with d. Residues, ends and D or L forms follow the SMILES beside them. X42 = C[C@H](CCCOC(=O)N(C)C1CCN(C)CC1)[C@@H](C(=O)[*:2])N(C)[*:1]; X66 = C[C@H](COCC(=O)N1CCN(C)CC1)[C@@H](C(=O)[*:2])N(C)[*:1]; X69 = C[C@H](CCCN1CCC(C(N)=O)CC1)[C@@H](C(=O)[*:2])N(C)[*:1]; X1 = COC[C@@H]1CN(C[C@H](C)[C@@H](C(=O)[*:2])N(C)[*:1])CCO1; X40 = C[C@H](COCC(=O)N1CCNCC1)[C@@H](C(=O)[*:2])N(C)[*:1]; X52 = C[C@H](CCC(=O)N1CCOCC1)[C@@H](C(=O)[*:2])N(C)[*:1]; X47 = C[C@H](CN1CCC(F)(F)C1)[C@@H](C(=O)[*:2])N(C)[*:1]; MeBmt = C/C=C/C[C@@H](C)[C@@H](O)[C@H](NC)C(=O)O; NMeL = CN[C@@H](CC(C)C)C(=O)O; NMeV = CN[C@H](C(=O)O)C(C)C; dNMeA = CN[C@H](C)C(=O)O; Abu = CC[C@H](N)C(=O)O
# How the values were obtained:
# [1] = molecular target: cyclophilin A (CypA) (Homo sapiens (Human), UniProt P62937); test: Inhibitor binding to cyclophilin proteins by SPR, CypA; set-up: unit not given here; conditions: 1:1 binding model
# [2] = molecular target: organic anion transporting polypeptide 1B1 (OATP1B1) (Homo sapiens (Human), UniProt Q9Y6L6); test: OATP assay in CHO-OATP1B1 cells;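 note: inhibition of probe substrate uptake into the cells, ten minutes exposure, accumulated substrate read by fluorescence once cells were lysed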
# Method: In order to determine whether the compounds of the present invention interact with hepatic transporters, experiments were carried out that compared the concentration-dependent inhibition toward the organic anion transporting polypeptide 1B1 (OATP1B1) and the multidrug resistance associated protein 2 (MRP2).
# The cells were cultured in DMEM/F12 +10% FBS+2 mM Ala-Gln+1% Pen-Strep for a period of two days, and the media was changed one day post-seeding. Prior to the assay, media was aspirated and were washed −3× with HBSS+10 mM HEPES and the solution was equilibrated for 15 min in HBSS+10 mM HEPES. Solutions containing the inhibitor were prepared in HBSS+10 mM HEPES (up to 1% DMSO). […] After 10 min, the substrate or substrate/inhibitor solution was aspirated and the cells were washed 3× with HBSS+10 mM HEPES. The amount of the transported probe substrate was determined by fluorescent photometry after cell lysis, and the IC50 was derived from the concentration-response curve.
# [3] = molecular target: cyclophilin B (CypB) (Homo sapiens (Human), UniProt P23284); test: Inhibitor binding to cyclophilin proteins by SPR, CypB; set-up: unit not given here; conditions: 1:1 binding model
# Method: (§1) Method 1: Measuring Inhibitor Binding to Cyclophilin Proteins
# (§2) Binding of inhibitors to expressed cyclophilins was determined using surface plasmon resonance (SPR) experiments. Briefly, avi-tagged cyclophilin proteins with mono-biotinylation were immobilized onto a Biotin CAPture chip (GE Healthcare, cat. #28920234). SPR experiments were carried out on an upgraded Biacore T200 system using a running buffer containing the inhibitor, 10 mM HEPES, pH 7.4, 150 mM NaCl, 0.05% P20, and 3% DMSO. Single-cycle kinetics measurements were used to study the interactions between cyclophilin inhibitors and different cyclophlins. Accordingly, compound at various concentrations was injected to the flow cells with a contact time of 1 min each at a flow rate of 50 μL/min. The final dissociation phase lasts for 10 min following the sample injection. Data was analyzed using Biacore T200 Evaluation Software Version 1.0 and a 1:1 binding model was applied to fit the data to obtain kon, koff, and KD.
# [4] = molecular target: CypF (Homo sapiens (Human), UniProt P30405); test: Inhibitor binding to cyclophilin proteins by SPR, CypF; conditions: 1:1 binding model
# Method: as §1, §2
# [5] = tested on: peripheral blood mononuclear cells (PBMC); test: Anti-proliferative or immunosuppressive activity, BrdU incorporation in PHA-stimulated PBMC; type: cell-based; conditions: PHA 3 μg/ml, 60 hour compound treatment; read-out: EMV PBMC IC50
# Method: Method 3: Measuring Anti-Proliferative or Immunosuppressive Activity
# The potential anti-proliferative activity of compounds on T-cells was analyzed based on the amount of bromodesoxy uridine (BrdU) incorporated into DNA of fresh peripheral blood mononuclear cells (PBMC) using the BrdU ELISA kit (Roche). The assay is performed in 96-well plate format with 30,000 PBMCs seeded per well in X-VIVO 15 medium (Lonza). T-cell proliferation was stimulated by addition of 3 μg/ml phytohemagglutinin (PHA) in PBMCs obtained from two donors.
# [6] = tested on: genotype 1b subgenomic HCV replicon in Huh7.5 cells; type: cell-based, hepatitis C virus; conditions: genotype 1b replicon, 72 h incubation; read-out: RPLN-1b IC50
# Method: Method 2: Measuring Inhibitory Effects in a HCV Replicon System
# Susceptibility to compounds was analyzed in Huh7.5 cells containing genotype 1a or 1b subgenomic HCV replicons co-expressing a luciferase reporter gene. The original replicons, pFK389lucubineo_3_3′_ET and pH/SG-Neo(L+I), were licensed from ReBlicon GmbH (Germany) and Apath LLC (Saint Louis, Mo.), respectively. The firefly reporter gen was replaced by renilla luciferase reporter gene using standard molecular biology techniques as follows.
# Generation of genotype 1b subgenomic replicon: The renilla […]-neomycin phosphotransferase cassette was amplified from pF9 cytomegalovirus (CMV) hRluc-Neo Flexi(R) (Promega) by PCR using Accuprime super mix II (Invitrogen) and a primer set of Ascl hRlucNeo Fwd and NotI hRluc Rev. These two primers have the following sequences and introduce restriction sites for subsequent cloning: Ascl hRlucNeo Fwd, 5 […] 3(Ascl site underlined) (SEQ. ID No. 1), and NotI hRluc Rev, 5[…] 3(NotI site underlined) (SEQ ID No. 2). The amplification product was subcloned into pCR2.1-TOPO (Invitrogen). The resulting plasmid was digested with Ascl and NotI, and the excised fragment (hRluc-Neo) was ligated with the Roche Quick Ligation Kit (Roche) into pFK1389lucubineo_3_3′_ET digested with the same enzymes.
# The assay medium for both, luciferase reporter HCV replicon and cytotoxicity assays contains phenol red-free DMEM and lacks G418. […] Luciferase activity of compound treated cells is measured relative to DMSO treated cells after 72 h incubation using Renilla-Glo™ Luciferase Assay (Promega). Cytotoxicity (CC50) is analyzed using Cell Titer-Glo™ (Promega).
# CypF, sequence (P30405 30-207): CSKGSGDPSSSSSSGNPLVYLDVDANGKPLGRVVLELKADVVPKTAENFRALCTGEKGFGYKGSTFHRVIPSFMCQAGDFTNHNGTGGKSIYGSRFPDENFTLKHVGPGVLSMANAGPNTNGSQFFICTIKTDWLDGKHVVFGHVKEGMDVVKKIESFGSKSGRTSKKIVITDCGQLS
# cyclophilin B (CypB), sequence (P23284 34-216): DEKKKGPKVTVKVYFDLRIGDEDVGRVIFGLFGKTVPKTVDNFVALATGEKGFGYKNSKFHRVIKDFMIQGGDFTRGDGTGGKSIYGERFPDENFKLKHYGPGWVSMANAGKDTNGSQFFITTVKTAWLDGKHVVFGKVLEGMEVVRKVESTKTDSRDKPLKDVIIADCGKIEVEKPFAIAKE
# cyclophilin A (CypA), sequence (P62937 whole entry): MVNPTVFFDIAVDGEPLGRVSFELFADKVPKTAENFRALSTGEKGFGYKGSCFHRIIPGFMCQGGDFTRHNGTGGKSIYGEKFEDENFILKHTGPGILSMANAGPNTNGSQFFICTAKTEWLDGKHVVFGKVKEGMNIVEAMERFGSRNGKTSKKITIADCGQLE
# organic anion transporting polypeptide 1B1 (OATP1B1), sequence (Q9Y6L6 whole entry): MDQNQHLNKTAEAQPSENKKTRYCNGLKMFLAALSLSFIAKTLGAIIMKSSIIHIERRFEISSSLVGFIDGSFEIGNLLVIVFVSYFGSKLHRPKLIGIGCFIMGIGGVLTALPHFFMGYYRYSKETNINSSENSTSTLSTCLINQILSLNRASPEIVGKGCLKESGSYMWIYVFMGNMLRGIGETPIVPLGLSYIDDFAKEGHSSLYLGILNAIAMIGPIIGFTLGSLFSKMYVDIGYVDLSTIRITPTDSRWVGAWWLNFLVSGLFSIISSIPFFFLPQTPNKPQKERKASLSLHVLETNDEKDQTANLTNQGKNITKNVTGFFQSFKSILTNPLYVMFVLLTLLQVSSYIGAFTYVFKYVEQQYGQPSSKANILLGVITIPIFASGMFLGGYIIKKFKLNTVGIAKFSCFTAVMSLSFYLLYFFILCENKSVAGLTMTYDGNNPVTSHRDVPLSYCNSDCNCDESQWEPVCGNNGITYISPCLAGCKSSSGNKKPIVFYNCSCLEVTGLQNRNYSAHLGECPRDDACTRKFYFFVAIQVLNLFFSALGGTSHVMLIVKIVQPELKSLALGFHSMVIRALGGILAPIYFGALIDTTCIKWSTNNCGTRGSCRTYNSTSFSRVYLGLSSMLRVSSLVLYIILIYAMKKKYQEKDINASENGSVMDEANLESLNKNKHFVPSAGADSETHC
Structure (SMILES),CypA Kd [1],IC50 [2] [nM],CypB Kd [3],CypF Kd [4] [nM],IC50 [5] [nM],IC50 [6] [nM]
"C/C=C/C[C@@H](C)[C@@H](O)[C@H]1C(=O)N[C@@H](CC)C(=O)N(C)[C@H](C)C(=O)N(C)[C@@H]([C@H](C)COCC(=O)N2CCNCC2)C(=O)N[C@@H](C(C)C)C(=O)N(C)[C@@H](CC(C)C)C(=O)N[C@@H](C)C(=O)N[C@H](C)C(=O)N(C)[C@@H](CC(C)C)C(=O)N(C)[C@@H](CC(C)C)C(=O)N(C)[C@@H](C(C)C)C(=O)N1C [Compound 2.6.1, 3-[D-Ala]-4-[(2S,3S)-3-methyl-2-(methylamino)-4-(2-oxo-2-(piperazin-1-yl)ethoxy)butanoyl]-cyclosporin] (cyclo(A[dA][NMeL][NMeL][NMeV][MeBmt][Abu][dNMeA][X40]V[NMeL]))",1.0,6900,0.7,0.4,–,–
"C/C=C/C[C@@H](C)[C@@H](O)[C@H]1C(=O)N[C@@H](CC)C(=O)N(C)[C@H](CC)C(=O)N(C)[C@@H]([C@H](C)COC)C(=O)N[C@@H](C(C)C)C(=O)N(C)[C@@H](CC(C)C)C(=O)N[C@@H](C)C(=O)N[C@H](C)C(=O)N(C)[C@@H](CC(C)C)C(=O)N(C)[C@@H](CC(C)C)C(=O)N(C)[C@@H](C(C)C)C(=O)N1C [Compound 3.1, 3-[(R)-2-(methylamino)butanoic acid]-4-[(2S,3S)-4-methoxy-3-methyl-2-(methylamino)butanoyl]-cyclosporin]",3.4,2100,1.6,1.9,–,–
"C/C=C/C[C@@H](C)[C@@H](O)[C@H]1C(=O)N[C@@H](CC)C(=O)N(C)[C@H](C)C(=O)N(C)[C@@H]([C@H](C)CCCOC(=O)N(C)C2CCN(C)CC2)C(=O)N[C@@H](C(C)C)C(=O)N(C)[C@@H](CC(C)C)C(=O)N[C@@H](C)C(=O)N[C@H](C)C(=O)N(C)[C@@H](CC(C)C)C(=O)N(C)[C@@H](CC(C)C)C(=O)N(C)[C@@H](C(C)C)C(=O)N1C [Compound 2.19.9, 3-[D-Ala]-4-[(2S,3R)-3-methyl-6-((methyl(1-methylpiperidin-4-yl)carbamoyl)oxy)-2-(methylamino)hexanoyl]-cyclosporin] (cyclo(A[dA][NMeL][NMeL][NMeV][MeBmt][Abu][dNMeA][X42]V[NMeL]))",0.8,3700,0.4,0.4,–,–
"C/C=C/C[C@@H](C)[C@@H](O)[C@H]1C(=O)N[C@@H](CC)C(=O)N(C)[C@H](C)C(=O)N(C)[C@@H]([C@H](C)COCC(=O)N2CCN(C)CC2)C(=O)N[C@@H](C(C)C)C(=O)N(C)[C@@H](CC(C)C)C(=O)N[C@@H](C)C(=O)N[C@H](C)C(=O)N(C)[C@@H](CC(C)C)C(=O)N(C)[C@@H](CC(C)C)C(=O)N(C)[C@@H](C(C)C)C(=O)N1C [Compound 2.6.3, 3-[D-Ala]-4-[(2S,3S)-3-methyl-2-(methylamino)-4-(2-(4-methylpiperazin-1-yl)-2-oxoethoxy)butanoyl]-cyclosporin] (cyclo(A[dA][NMeL][NMeL][NMeV][MeBmt][Abu][dNMeA][X66]V[NMeL]))",1.5,9400,0.8,0.5,–,–
"C/C=C/C[C@@H](C)[C@@H](O)[C@H]1C(=O)N[C@@H](CC)C(=O)N(C)[C@H](C)C(=O)N(C)[C@@H]([C@H](C)CCCN2CCC(C(N)=O)CC2)C(=O)N[C@@H](C(C)C)C(=O)N(C)[C@@H](CC(C)C)C(=O)N[C@@H](C)C(=O)N[C@H](C)C(=O)N(C)[C@@H](CC(C)C)C(=O)N(C)[C@@H](CC(C)C)C(=O)N(C)[C@@H](C(C)C)C(=O)N1C [Compound 2.19.2, 3-[D-Ala]-4-[(2S,3R)-6-(4-carbamoylpiperidin-1-yl)-3-methyl-2-(methylamino)hexanoyl]-cyclosporin] (cyclo(A[dA][NMeL][NMeL][NMeV][MeBmt][Abu][dNMeA][X69]V[NMeL]))",0.9,–,0.6,0.5,32300,2700
"C/C=C/C[C@@H](C)[C@@H](O)[C@H]1C(=O)N[C@@H](CC)C(=O)N(C)[C@H](C)C(=O)N(C)[C@@H]([C@H](C)COCCN2CC(OC)C2)C(=O)N[C@@H](C(C)C)C(=O)N(C)[C@@H](CC(C)C)C(=O)N[C@@H](C)C(=O)N[C@H](C)C(=O)N(C)[C@@H](CC(C)C)C(=O)N(C)[C@@H](CC(C)C)C(=O)N(C)[C@@H](C(C)C)C(=O)N1C [Compound 2.8.9, 3-[D-Ala]-4-[(2S,3S)-4-(2-(3-methoxyazetidin-1-yl)ethoxy)-3-methyl-2-(methylamino)butanoyl]-cyclosporin]",0.6,–,0.4,0.3,9100,240
"C/C=C/C[C@@H](C)[C@@H](O)[C@H]1C(=O)N[C@@H](CC)C(=O)N(C)[C@H](C)C(=O)N(C)[C@@H]([C@H](C)CN2CCC(F)(F)C2)C(=O)N[C@@H](C(C)C)C(=O)N(C)[C@@H](CC(C)C)C(=O)N[C@@H](C)C(=O)N[C@H](C)C(=O)N(C)[C@@H](CC(C)C)C(=O)N(C)[C@@H](CC(C)C)C(=O)N(C)[C@@H](C(C)C)C(=O)N1C [Compound 2.5.18, 3-[D-Ala]-4-[(2S,3R)-4-(3,3-difluoropyrrolidin-1-yl)-3-methyl-2-(methylamino)butanoyl]-cyclosporin] (cyclo(A[dA][NMeL][NMeL][NMeV][MeBmt][Abu][dNMeA][X47]V[NMeL]))",3.9,–,1.8,2,12100,9
"CCCC[C@@H](C)[C@@H](O)[C@H]1C(=O)N[C@@H](CC)C(=O)N(C)[C@H](C)C(=O)N(C)[C@@H]([C@H](C)COCCN2CCOCC2)C(=O)N[C@@H](C(C)C)C(=O)N(C)[C@@H](CC(C)C)C(=O)N[C@@H](C)C(=O)N[C@H](C)C(=O)N(C)[C@@H](CC(C)C)C(=O)N(C)[C@@H](CC(C)C)C(=O)N(C)[C@@H](C(C)C)C(=O)N1C [Compound 2.8.10, 1-dihydro-3-[D-Ala]-4-[(2S,3S)-3-methyl-2-(methylamino)-4-(2-morpholinoethoxy)butanoyl]-cyclosporin]",2.1,–,1.2,1.1,14500,110
"C/C=C/C[C@@H](C)[C@@H](O)[C@H]1C(=O)N[C@@H](CC)C(=O)N(C)[C@H](C)C(=O)N(C)[C@@H]([C@@H](C)CN2CCO[C@H](COC)C2)C(=O)N[C@@H](C(C)C)C(=O)N(C)[C@@H](CC(C)C)C(=O)N[C@@H](C)C(=O)N[C@H](C)C(=O)N(C)[C@@H](CC(C)C)C(=O)N(C)[C@@H](CC(C)C)C(=O)N(C)[C@@H](C(C)C)C(=O)N1C [Compound 2.17.11, 3-[D-Ala]-4-[(2S,3S)-4-((S)-2-(methoxymethyl)morpholino)-3-methyl-2-(methylamino)butanoyl]-cyclosporin] (cyclo(A[dA][NMeL][NMeL][NMeV][MeBmt][Abu][dNMeA][X1]V[NMeL]))",1.1,–,0.7,0.6,36400,22
"C/C=C/C[C@@H](C)[C@@H](O)[C@H]1C(=O)N[C@@H](CC)C(=O)N(C)[C@H](C)C(=O)N(C)[C@@H]([C@H](C)CCC(=O)N2CCOCC2)C(=O)N[C@@H](C(C)C)C(=O)N(C)[C@@H](CC(C)C)C(=O)N[C@@H](C)C(=O)N[C@H](C)C(=O)N(C)[C@@H](CC(C)C)C(=O)N(C)[C@@H](CC(C)C)C(=O)N(C)[C@@H](C(C)C)C(=O)N1C [Compound 2.14.4, 3-[D-Ala]-4-[(2S,3R)-3-methyl-2-(methylamino)-6-morpholino-6-oxohexanoyl]-cyclosporin] (cyclo(A[dA][NMeL][NMeL][NMeV][MeBmt][Abu][dNMeA][X52]V[NMeL]))",2.1,4800,1.5,1.1,–,–
